Reference: patent US20130123323A1, “FUNGICIDAL PYRAZOLES” (E I DU PONT DE NEMOURS AND COMPANY, priority 2010, published 2013)

Legend:
Type in all cases: in vivo
Alternaria solani = assay: Test B: tomato early blight, test suspension sprayed on tomato seedlings the day before inoculation; details: sprayed to run-off, inoculated following day, visual rating after 48 h at 27° C. + 5 days at 20° C., 100 = 100% disease control, triplicate averaged
Experimental: General protocol for preparing test suspensions for Tests A-F: the test compounds were first dissolved in acetone in an amount equal to 3% of the final volume and then suspended at the desired concentration (in ppm) in acetone and purified water (50/50 mix) containing 250 ppm of the surfactant Trem® 014 (polyhydric alcohol esters). The resulting test suspensions were then used in Tests A-F. Each test was conducted in triplicate, and the results were averaged. Spraying a 200 ppm test suspension to the point of run-off on the test plants was the equivalent of a rate of 800 g/ha. The test suspension was sprayed to the point of run-off on tomato seedlings. The following day the seedlings were inoculated with a spore suspension of Alternaria solani (the causal agent of tomato early blight) and incubated in a saturated atmosphere at 27° C. for 48 h, and then moved to a growth chamber at 20° C. for 5 days, after which time visual disease ratings were made. Results for Tests A-F are given in Table A. In the Table, a rating of 100 indicates 100% disease control and a rating of 0 indicates no disease control (relative to the controls). A dash (-) indicates no test results.

Botrytis cinerea = assay: Test A: tomato botrytis, test suspension sprayed on tomato seedlings the day before inoculation; details: sprayed to run-off, inoculated following day, visual rating after 48 h at 20° C. + 3 days at 24° C., 100 = 100% disease control, 0 = no control, triplicate averaged
Experimental: General protocol for preparing test suspensions for Tests A-F: the test compounds were first dissolved in acetone in an amount equal to 3% of the final volume and then suspended at the desired concentration (in ppm) in acetone and purified water (50/50 mix) containing 250 ppm of the surfactant Trem® 014 (polyhydric alcohol esters). The resulting test suspensions were then used in Tests A-F. Each test was conducted in triplicate, and the results were averaged. Spraying a 200 ppm test suspension to the point of run-off on the test plants was the equivalent of a rate of 800 g/ha. The test suspension was sprayed to the point of run-off on tomato seedlings. The following day the seedlings were inoculated with a spore suspension of Botrytis cinerea (the causal agent of tomato botrytis) and incubated in saturated atmosphere at 20° C. for 48 h, and then moved to a growth chamber at 24° C. for 3 days, after which time visual disease ratings were made. Results for Tests A-F are given in Table A. In the Table, a rating of 100 indicates 100% disease control and a rating of 0 indicates no disease control (relative to the controls). A dash (-) indicates no test results.

[1] = tested on: Puccinia recondita f. sp. tritici; assay: Test E2: wheat leaf rust, test suspension sprayed on wheat seedlings the day before inoculation; details: sprayed to run-off, inoculated following day, visual rating after 24 h + 6 days at 20° C., 100 = 100% disease control, triplicate averaged
Experimental: (§1) General protocol for preparing test suspensions for Tests A-F: the test compounds were first dissolved in acetone in an amount equal to 3% of the final volume and then suspended at the desired concentration (in ppm) in acetone and purified water (50/50 mix) containing 250 ppm of the surfactant Trem® 014 (polyhydric alcohol esters). The resulting test suspensions were then used in Tests A-F. Each test was conducted in triplicate, and the results were averaged. Spraying a 200 ppm test suspension to the point of run-off on the test plants was the equivalent of a rate of 800 g/ha. The test suspension was sprayed to the point of run-off on wheat seedlings. The following day the seedlings were inoculated with a spore suspension of Puccinia recondita f. sp. tritici (the causal agent of wheat leaf rust) and incubated in a saturated atmosphere at 20° C. for 24 h, and then moved to a growth chamber at 20° C. for 6 days, after which time visual disease ratings were made. Results for Tests A-F are given in Table A. In the Table, a rating of 100 indicates 100% disease control and a rating of 0 indicates no disease control (relative to the controls). A dash (-) indicates no test results.

Septoria tritici = assay: Test D: wheat leaf blotch, test suspension sprayed on wheat seedlings the day before inoculation; details: sprayed to run-off, inoculated following day, visual rating after 48 h at 24° C. + 19 days at 20° C., 100 = 100% disease control, triplicate averaged
Experimental: (§2) General protocol for preparing test suspensions for Tests A-F: the test compounds were first dissolved in acetone in an amount equal to 3% of the final volume and then suspended at the desired concentration (in ppm) in acetone and purified water (50/50 mix) containing 250 ppm of the surfactant Trem® 014 (polyhydric alcohol esters). The resulting test suspensions were then used in Tests A-F. Each test was conducted in triplicate, and the results were averaged. Spraying a 200 ppm test suspension to the point of run-off on the test plants was the equivalent of a rate of 800 g/ha. The test suspension was sprayed to the point of run-off on wheat seedlings. The following day the seedlings were inoculated with a spore suspension of Septoria tritici (the causal agent of wheat leaf blotch) and incubated in saturated atmosphere at 24° C. for 48 h, and then the seedlings were moved to a growth chamber at 20° C. for 19 additional days, after which time visual disease ratings were made. Results for Tests A-F are given in Table A. In the Table, a rating of 100 indicates 100% disease control and a rating of 0 indicates no disease control (relative to the controls). A dash (-) indicates no test results.

[2] = tested on: Puccinia recondita f. sp. tritici; assay: Test E1: wheat leaf rust, wheat seedlings sprayed after inoculation; details: wheat seedlings inoculated, 24 h + 2 days at 20° C., then sprayed to run-off; visual rating 4 days later; 100 = 100% disease control; triplicate averaged
Experimental: as §1, with “Wheat” for “The test suspension was sprayed to the point of run-off on wheat seedlings. The following day the”, “2 days. At the end of this time the test suspension was sprayed to the point of run-off on the wheat seedlings, and then the seedlings were moved to a growth chamber at 20° C. for 4” for “6”

Septoria nodorum = assay: Test C: wheat glume blotch, test suspension sprayed on wheat seedlings the day before inoculation; details: sprayed to run-off, inoculated following day, visual rating after 48 h at 24° C. + 9 days at 20° C., 100 = 100% disease control, triplicate averaged
Experimental: as §2, with “of Septoria nodorum (the causal” for “of Septoria tritici (the causal”, “of wheat glume blotch) and” for “of wheat leaf blotch) and”, “incubated in a saturated atmosphere” for “incubated in saturated atmosphere”, “and then moved to” for “and then the seedlings were moved to”, “C. for 9 days, after” for “C. for 19 additional days, after”

[3] = tested on: Blumeria graminis f. sp. tritici; assay: Test F: wheat powdery mildew, test suspension sprayed on wheat seedlings the day before inoculation; details: sprayed to run-off, inoculated with spore dust following day, visual rating after 8 days at 20° C., 100 = 100% disease control, triplicate averaged
Experimental: as §1, with “spore dust” for “spore suspension”, “of Blumeria graminis” for “of Puccinia recondita”, “tritici (also known as Erysiphe graminis f. sp. tritici, the” for “tritici (the”, “wheat powdery mildew)” for “wheat leaf rust)”, “in” for “in a saturated atmosphere at 20° C. for 24 h, and then moved to”, “for 8” for “for 6”

SMILES	Test B disease control rating (Alternaria solani) [%]	Test A disease control rating (Botrytis cinerea) [%]	Test E2 disease control rating [1] [%]	Test D disease control rating (Septoria tritici) [%]	Test E1 disease control rating [2] [%]	Test C disease control rating (Septoria nodorum) [%]	Test F disease control rating [3] [%]
Cc1nn(C)c(C(F)c2ccc(F)cc2F)c1-c1ccc(F)cc1Cl (centres unmarked) [Compound 1, 4-(2-Chloro-4-fluorophenyl)-5-[(2,4-difluorophenyl)fluoromethyl]-1,3-dimethyl-1H-pyrazole]	83	100	99	98	40	0	69
Cc1nn(C)c(C(Cl)c2ccc(F)cc2F)c1-c1ccc(F)cc1Cl (centres unmarked) [Compound 2, 5-[Chloro(2,4-difluorophenyl)methyl]-4-(2-chloro-4-fluorophenyl)-1,3-dimethyl-1H-pyrazole]	0	99	94	100	0	0	0
COc1cc(F)c(C(F)c2c(-c3c(F)cccc3F)c(C)nn2C)c(F)c1 (centres unmarked) [Compound 3]	46	100	100	100	98	0	99
Cc1nn(C)c(C(F)c2ccc(F)cc2F)c1-c1c(F)cccc1F (centres unmarked) [Compound 4]	98	99	18	52	66	0	0
Cc1nn(C)c(C(Cl)c2ccc(F)cc2F)c1-c1c(F)cccc1F (centres unmarked) [Compound 5]	100	100	100	100	9	89	100
Cc1nn(C)c(C(F)c2ccc(F)cc2Cl)c1-c1c(F)cccc1Cl (centres unmarked) [Compound 6]			98	96			87
Cc1nn(C)c(C(Cl)c2ccc(F)cc2Cl)c1-c1c(F)cccc1Cl (centres unmarked) [Compound 7]			100	100			100
